Values of other authors as cited in patent publication US20150314047A1, “BORON COMPOSITE SURFACE COATINGS AND THEIR APPLICATION ON IMPLANTABLE DEVICES TO ACCELERATE OSSEOUS HEALING” (Rutgers, The State University of New Jersey, priority 2014, published 2015).
Read-outs that look alike come from different tables or passages of the source.

Legend:
[1] = test system: human origin cultured cells
[2] = test system: axial skeleton; settings: boron administered at several concentrations
[3] = test system: pre-osteoblastic cells; settings: 0.1, 1, 10, and 100 ng/mL boron concentrations

Compound: cubic boron nitride
- Effect on cell survival [1]: did not affect cell survival

Compound: [Co] [cobalt]
- Effect on cell survival ([1]; even at reasonably high concentrations): negatively affected cell survival

Compound: [B] [boron]
- Higher resistance to vertebral crushing force [2]: 10%
- Bone Morphogenic Proteins (BMPs)-4, -6, and -7 [3]: increases
